Assay results from article PMC11513920, “Building Metabolically Stable and Potent Anti-HIV Thioether-Lipid Analogues of Tenofovir Exalidex: A thorough Pharmacological Analysis” (Journal of Medicinal Chemistry, 2024).

Columns and labels:
[1] = Human liver microsome stability; details: for half-life at 3 μM / half-life at 2.083 h, 3 µM / remaining at 2 h, 3 μM: human; for remaining at 2 h, 3 μM: HLM % remaining; for remaining at 2 h, 3 μM / HLM % remaining: relative percent remaining of prodrug at 120 min
Method: Human liver microsomes (HLMs, 20 mg/mL) and CD-1 mouse liver microsomes (MLMs, 20 mg/mL) were purchased from Xenotech. NADPH was purchased from Sigma-Aldrich and prepared in 10 mM stock solutions of distilled H2O (Invitrogen UltraPure). […] Test compounds and positive controls were initially dissolved in MeOH to make 10 mM stock solutions. Sample solutions were then further diluted in 70/30 MeOH/H2O to 500 μM. Next, the reactions were prepared by mixing human or mouse liver microsomes (55 μL) with potassium phosphate buffer (100 mM, 928 μL) in 1.5 mL Eppendorf tubes. The test compounds (6.6 μL of 500 μM solution) were subsequently added to the suspensions, and the reaction mixtures were incubated at 37 °C for 5 min. Afterward, the liver microsome reactions were initiated with 110 μL of 10 mM NADPH and further incubated at 37 °C for the designated time course of the study. […] Each test compound was run in tandem with positive and negative control experiments for quality assurance. Positive control reactions were conducted at a final volume of 550 μL for a single run of each time point.
For both LM and plasma stability assays, each data point was analyzed in duplicate using in-between blank washes to avoid carry over and to equilibrate the column for the subsequent runs. Averages of these duplicate for individual compounds at each time point were then normalized to the data at 0 min, representing 100% test compound remaining or 0% metabolism. Half-lives (t1/2) were calculated by plotting ln of % test compound remaining versus time and performing linear regression to determine slope.
Metabolic Stability Assays
Liver Microsome Stability
Liver Microsome Stability Assay Setup Example
Quenching Mixture: 100 µL MeOH with ISTD (2 µM d5-7-ethoxycoumarin).
Final Volume After Quenching: 200 µL (100 µL from reaction mixture + 100 µL quencher
solution; ISTD final concentration of 1.0 µM).

[2] = Cellular cytotoxicity (cell viability, CellTiter 96 or resazurin); details: human, CC50, HEK293T cells, compounds formulated with HSA (5:1)
HEK293T cells = experiment: as above; details: HEK293T cells, 48 h, compounds formulated with HSA (5:1)
[3] = Solubility in antiviral/cytotoxicity assay medium; format: physicochemical; details: despite formulation with HSA
From the text: Nevertheless, due to the promising metabolic profile of 2i and 2j, our lab is continuing to analyze TXL analogs with chain lengths beyond 20 atoms and will disclose a report in the future. However, for the sake of this study, 2a remained as the most pharmacologically attractive starting point for ω-functionalization.

[4] = system: HIV-1 subtype C strain MJ4; experiment: Single-cycle non-replicating HIV pseudoviral luciferase assay in HEK293T cells; details: Human immunodeficiency virus 1, HEK-293T, read-out: HIV IC50
Method: Second, HIV IC50 and cellular CC50 were determined with a pseudoviral, whole (HEK293T) cell, nonreplicative HIV assay, using the HIV-1 subtype C strain MJ4 (refer to Experimental Methods). To account for the unique amphiphilic properties of TXL and the novel HTP-based prodrugs, all compounds were formulated in a human serum albumin (HSA) solution (5:1 drug:protein).
Assessment of cytotoxicity and antiviral activity of all final compounds in vitro was conducted according to previously reported procedures.[39] In summary, human embryonic kidney (HEK293T) cells maintained in high glucose (25 mM), Dulbecco’s modified Eagle’s medium (DMEM) supplemented with fetal bovine serum (10%), sodium pyruvate (1 mM), L-glutamine (2 mM), HEPES (25 mM), and gentamicin (50 μg/mL) were used for determinations. The cells were maintained in an incubator at 37 °C under 5% CO2 in a humidified atmosphere. For both cytotoxicity and antiviral screening, all compounds were evaluated in duplicate in at least two independent experiments. All final compounds were formulated with human serum albumin (HSA, 5:1 compound to HSA molar ratio) and subsequently diluted with complete DMEM to 200 μM. Fifty microliters of test compound serial dilutions (3-fold) were prepared in 96-well culture plates, after which 50 μL of HEK293T cells (2 × 10^4 cells/well) was added. […] Cytotoxicity was then assessed by quantifying cell viability using the CellTiter 96 Aqueous One Solution Cell Proliferation Assay (Promega, Madison, WI) or resazurin sodium salt (cat# R7017, Merck, Darmstadt, Germany).[61] […] Antiviral activity was then assessed using a single-cycle, nonreplicating, envelope deleted HIV pseudoviral in vitro assay.[62],[63] The assay relies on the introduction of the firefly luciferase gene into HEK293T cells through infection with HIV-like viral particles, containing Reverse Transcriptase (RT) and Integrase (IN) from the HIV-1 subtype C strain MJ4.[64] The expression of the luciferase in the cells is directly proportional to the level of infection by the HIV-like viral particles and can be used to assess the inhibition of HIV-1 RT and IN. To evaluate anti-HIV activity, 3-fold serial dilutions of all final compounds were prepared in 50 μL over the noncytotoxic concentration range (as determined from the cytotoxicity screens described above) in 96-well culture plates. HEK293T cells (2 × 10^4 cells/well) and HIV-like viral particles, standardized to produce a luminescence signal of 1 × 10^6 relative light units (RLUs) in the growth medium only control, were combined, and 50 μL was added to the wells containing serially diluted test compounds. […] The expression of luciferase was subsequently quantified by adding 100 μL of the Bright-Glo Luciferase Assay substrate (Promega, Madison, WI) to each well of the 96-well plates. After incubation at rt for 3 min, luminescence was quantified on the GloMax Explorer Multimode Microplate Reader (Promega, Madison, WI).

HepaRG cellular uptake = details: human, HepaRG Cmax, 20 μM, HSA formulation 5:1, recorded after 3 h incubation
From the text: (§9) Naturally, due the metabolic complexity of HepaRG cells, we specifically analyzed prodrug cellular uptake and stability, as represented by Cmax and intrinsic clearance (Clint,u) accordingly (Figure 7 and Table 9).
(§10) The HepaRG cell line (HPRGC10, Thermo Fisher Scientific) was used to evaluate the cellular permeability and metabolic stability for select final compounds in vitro. The cells were initially thawed with working media composed of HepaRG Thaw, Plate, & General Purpose Medium Supplement (HPRG670), Williams Medium E (100 mL), and GlutaMax (1 mL), all purchased from Thermo Fisher Scientific. […] After the thawing medium was aspirated from each well, the cells were cultured for an additional 6 days with working media consisting of HepaRG Maintenance/Metabolism Medium Supplement (HPRG720), Williams Medium E (500 mL), and GlutaMax (1 mL), all purchased from Thermo Fisher Scientific. Upon completing the 7-day culture period, HepaRG cells were plated in enough wells to allow for duplicate analysis of prodrugs in two independent cellular uptake or metabolic stability experiments. All studied compounds were formulated with human serum albumin (HSA, 5:1 compound to HSA molar ratio) and subsequently diluted to a 20 μM final concentration with assay medium composed of serum-free INVITROGRO HI Medium and TORPEDO Antibiotic Mix purchased from BioIVT. For cellular uptake determinations, the maintenance/metabolism medium was first aspirated from each well, and then the plated cells were spiked with 1.0 mL of test compound stock solution. Subsequently, the plate was incubated at 37 °C under 5% CO2 environment over the desired time course (seven data points/compound). Blank wells not treated with prodrug were included in assay runs as controls and initial time points (0 min). At each time point, the test compound solution was removed from the appropriate wells, and the plated cells were washed with 1.0 mL of DPBS twice. The HepaRG cells were then extracted with 500 μL of cold ISTD solution (1 μM 7-ethoxy-d5-coumarin in 70/30 MeOH/H2O), and the quenched aliquots were centrifuged at 15,000 g for 10 min at 4 °C. […] After obtaining prodrug Cmax and Tmax values from the cellular uptake assay, HepaRG metabolic stability was then assessed. Following the initial 7-day culture procedure, the maintenance/metabolism medium was aspirated from each well, and the plated cells were spiked with 1.0 mL of test compound stock solution. […] The test compound solution was then removed from each well and replaced with untreated dilution medium (i.e., serum-free INVITROGRO HI Medium and TORPEDO Antibiotic Mix), initializing the stability determination. The HepaRG plate was once more incubated at 37 °C under 5% CO2 atmosphere over the desired time course (nine data points/compound), and sample preparation and analysis were handled in identical fashion to cellular uptake experiments.

HepaRG cells [5] = experiment: HepaRG cellular uptake; details: 20 µM
From the text: as §9, §10

[6] = HepaRG cellular metabolic stability; details: human, other cell line; for hepatocyte CLint at 20 μM: HepaRG Clint,u, calculated from cellular t1/2; for half-life at 20 μM: HepaRG t1/2, after 3 h loading at 20 μM, 37 °C
From the text: as §9, §10

HepaRG cells [7] = experiment: HepaRG cellular metabolic stability; details: for HepaRG t1/2: after 3 h loading at 20 μM, 37 °C
From the text: as §9, §10

Human plasma stability = format: in vitro ADME; details: both sexes, human, plasma; 3 μM, 37 °C, 240 min course; read-out: human plasma t1/2
Method: (§1) Human plasma (lithium heparin (LiHep) mixed, gender pooled, 0.2 μm filtered) and mouse plasma (BALB/C, LiHep mixed, male pooled, 0.2 μm filtered) were purchased from BioIVT. Procaine (Sigma-Aldrich) served as a positive control for both human and mouse plasma experiments. […] Next, the human or mouse plasma (994 μL) was aliquoted into 1.5 mL Eppendorf tubes with duplicates (reactions A and B) being prepared for each compound. The plasma was then incubated at 37 °C for 10 min. […] This procedure provided duplicate experiments with a final volume of 1000 μL (<0.2% organic solvent content) and a final test compound concentration of 3 μM. Aliquots (100 μL) were removed from each reaction mixture at 0, 30, 60, 120, and 240 min time intervals and quenched with 150 μL of cold ISTD solution (2 μM 7-ethoxy-d5-coumarin in MeOH). […] The positive control reaction was conducted at a final volume of 1000 μL for a single run of each time point. Finally, the negative control experiment was conducted with test compounds in Dulbecco’s phosphate buffered saline without calcium and magnesium (DPBS, Fisher Scientific, 143 μL) and analyzed at the 240 min time point.
(§2) Plasma Stability Assay Setup Example
(§3) Test Compound: 994 µL Human or Mouse Plasma + 6.0 µL TC (500 µM, Vial A).
(§4) 994 µL Human or Mouse Plasma + 6.0 µL TC (500 µM, Vial B).
(§5) Positive Control: 994 µL Human or Mouse Plasma + 6.0 µL Procaine (500 µM).
(§6) Negative Control: 142 µL DPBS (1X, pH 7.1-7.3) + 0.9 µL TC (500 µM).
(§7) Quenching Mixture: 150 µL MeOH with ISTD (2 µM d5-7-ethoxycoumarin).
(§8) Final Volume After Quenching: 250 µL (100 µL from reaction mixture and 150 µL quencher
solution; ISTD final concentration of 1.2 µM).
Human Plasma Stability of Compound 2a at 37 °C
Figure S29. In vitro human plasma stability of 2a (5 points over 240 min) with procaine serving

Mouse plasma stability = format: in vitro ADME; details: male, BALB/C, mouse, plasma; 3 μM, 37 °C, 240 min course; read-out: mouse plasma t1/2
Method: as §1, §2, §3, §4, §5, §6, §7, §8
solution; ISTD final concentration of 1.2 µM). […]

[8] = microsomes, HLM t1/2, HLM 1 mg/mL, 3 μM compound, NADPH, 37 °C, 120 min course

Row | SMILES | half-life at 3 μM [1, 8] [h] | half-life at 2.083 h, 3 µM [1, 8] [h] | CC50 at 48 h [2] [µM] | remaining at 2 h, 3 μM ([1]; microsomes) [%] | further results
1 | CCCCCCCCCCCCCCCCCSCCOP(=O)(O)CO[C@H](C)Cn1cnc2c(N)ncnc21.N [2b] | 1.1 | 1.1 ± 0.0433 | 29 |  | CC50 (HEK293T cells): 28.6 ± 3.7 µM
2 | CCCCCCCCCCCCCSCCCCCCOP(=O)(O)CO[C@H](C)Cn1cnc2c(N)ncnc21.N [2c] | 1.1 | 1.1 ± 0.05 | > 100 |  | 
3 | CCCCCCCCCCSCCCCCCCCCOP(=O)(O)CO[C@H](C)Cn1cnc2c(N)ncnc21.N [2d] |  | 0.222 ± 0.00833 | > 100 |  | 
4 | CCCCCCCSCCCCCCCCCCCCOP(=O)(O)CO[C@H](C)Cn1cnc2c(N)ncnc21.N [2e] |  | 0.3433 ± 0.00167 | > 100 |  | 
5 | CCCCSCCCCCCCCCCCCCCCOP(=O)(O)CO[C@H](C)Cn1cnc2c(N)ncnc21.N [2f] |  | 0.32833 ± 5e-05 | > 100 |  | 
6 | CCCCCCCCCCCCSCCCOP(=O)(O)CO[C@H](C)Cn1cnc2c(N)ncnc21.N [2g] |  | 0.188 ± 0.00333 | > 100 |  | 
7 | CCCCCCCCCCCCCCSCCCOP(=O)(O)CO[C@H](C)Cn1cnc2c(N)ncnc21.N [2h] |  | 0.26 ± 0.00167 | > 100 |  | 
8 | CCCCCCCCCCCCCCCCCCSCCCOP(=O)(O)CO[C@H](C)Cn1cnc2c(N)ncnc21.N [2i] | > 2 |  |  | 95 | HLM % remaining [1]: > 95%; solubility in the assay medium [3]: poor solubility
9 | CCCCCCCCCCCCCCCCCCCCSCCCOP(=O)(O)CO[C@H](C)Cn1cnc2c(N)ncnc21.N [2j] | > 2 |  |  | 95 | HLM % remaining [1]: > 95%; solubility in the assay medium [3]: poor solubility
10 | C#CCCCCCCCCCCCCCCSCCCOP(=O)(O)CO[C@H](C)Cn1cnc2c(N)ncnc21 [15b] |  |  |  |  | half-life at 3 μM ([1]; liver microsomes): > 1.58 h; half-life at 2.083 h, 3 µM ([1]; liver microsomes): 1.6 ± 0.03 h; IC50 [4]: 0.024 to 0.028 µM
11 | C[C@H](Cn1cnc2c(N)ncnc21)OCP(=O)(O)OCCCSCCCCCCCCCCCCC#C[Si](C)(C)C.N [15c] | > 1.58 |  | > 100 | 82 | HLM t1/2 ([1]; HLM 1 mg/mL, 3 μM compound, NADPH, 37 °C, 120 min course): > 2 h; IC50 [4]: 0.024 to 0.028 µM
12 | CC(C)[Si](C#CCCCCCCCCCCCSCCCOP(=O)(O)CO[C@H](C)Cn1cnc2c(N)ncnc21)(C(C)C)C(C)C.N [15d] | > 2 |  | 59.3 ± 2.4 | > 95 | 
13 | C[C@H](Cn1cnc2c(N)ncnc21)OCP(=O)(O)OCCCSCCCCCCCCCCCCC#CC(C)(C)C.N [15e] | > 2 |  | > 100 | 71 | Cmax at 3 h, 20 μM (HepaRG cellular uptake): 242 ± 5.5 ng/mL; mean prodrug concentration in HepaRG cells (HepaRG cells [5]; 0.5 h): 169.76 ng/mL; mean prodrug concentration in HepaRG cells (HepaRG cells [5]; 1 h): 211.84 ng/mL; mean prodrug concentration in HepaRG cells (HepaRG cells [5]; 2 h): 233.02 ng/mL; mean prodrug concentration in HepaRG cells (HepaRG cells [5]; 3 h): 241.98 ng/mL; mean prodrug concentration in HepaRG cells (HepaRG cells [5]; 4 h): 281.89 ng/mL; mean prodrug concentration in HepaRG cells (HepaRG cells [5]; 6 h): 321.96 ng/mL; hepatocyte CLint at 20 μM [6]: 18 to 19 µL/min/1e6 cells; half-life at 20 μM [6]: 1.12 to 1.18 h; HepaRG t1/2 (HepaRG cells [7]): 1.11 ± 0.0833 h; HepaRG Clint,u (HepaRG cells [7]; calculated from cellular t1/2): 18.9 μL/min/million cells; IC50 [4]: 0.196 µM
14 | C[C@H](Cn1cnc2c(N)ncnc21)OCP(=O)(O)OCCCSCCCCCCCCCCC#Cc1ccccc1.N [15f] | 1.18 | 1.19 ± 0.0183 | > 100 |  | 
15 | C[C@H](Cn1cnc2c(N)ncnc21)OCP(=O)(O)OCCCSCCCCCCCCCCC#Cc1ccc(F)cc1.N [15g] | > 2 |  | > 100 | 67 | 
16 | C[C@H](Cn1cnc2c(N)ncnc21)OCP(=O)(O)OCCCSCCCCCCCCCCC#CC1CCCCC1.N [15h] | > 2 |  | > 100 | 67 | HLM % remaining [1]: 70%
17 | C[C@H](Cn1cnc2c(N)ncnc21)OCP(=O)(O)OCCCSCCCCCCCCCCCCCCC(C)(C)C.N [16e] | > 2 |  | 24 ± 1.4 | 95 | HLM % remaining [1]: > 95%; Cmax at 3 h, 20 μM (HepaRG cellular uptake): 1100 ± 63.6 ng/mL; mean prodrug concentration in HepaRG cells (HepaRG cells [5]; 0.5 h): 625.22 ng/mL; mean prodrug concentration in HepaRG cells (HepaRG cells [5]; 1 h): 984.12 ng/mL; mean prodrug concentration in HepaRG cells (HepaRG cells [5]; 3 h): 1100.03 ng/mL; mean prodrug concentration in HepaRG cells (HepaRG cells [5]; 4 h): 1000.18 ng/mL; mean prodrug concentration in HepaRG cells (HepaRG cells [5]; 6 h): 1196.77 ng/mL; hepatocyte CLint at 20 μM [6]: 10.2 µL/min/1e6 cells; half-life at 20 μM [6]: 2.05 h; HepaRG t1/2 (HepaRG cells [7]): 2.052 ± 0.05 h; IC50 [4]: 0.177 µM
18 | C[C@H](Cn1cnc2c(N)ncnc21)OCP(=O)(O)OCCCSCCCCCCCCCCCCc1ccccc1.N [16f] | 1.13 | 1.14 ± 0.00167 | > 100 |  | 
19 | C[C@H](Cn1cnc2c(N)ncnc21)OCP(=O)(O)OCCCSCCCCCCCCCCCOc1ccccc1.N [23a] | 0.133 | 0.14 ± 0.00167 | > 100 |  | 
20 | C[C@H](Cn1cnc2c(N)ncnc21)OCP(=O)(O)OCCCSCCCCCCCCCCCSc1ccccc1.N [23b] |  | 0.132 ± 0.00333 | > 100 |  | 
21 | C[C@H](Cn1cnc2c(N)ncnc21)OCP(=O)(O)OCCCSCCCCCCCCCCCOc1ccc(F)cc1.N [23c] | 0.8 to 0.833 | 0.82833 ± 0.0005 | > 100 |  | 
22 | C[C@H](Cn1cnc2c(N)ncnc21)OCP(=O)(O)OCCCSCCCCCCCCCCCOC1CCCCC1.N [23d] | 0.8 to 0.833 | 0.7983 ± 0.00667 | > 100 |  | 
23 | COC(=O)CCCCCCCCCCCCCCCSCCCOP(=O)(O)CO[C@H](C)Cn1cnc2c(N)ncnc21.N [23e] |  | 0.0917 ± 0.005 | > 100 |  | 
24 | CCN(CC)CCOC(=O)c1ccc(N)cc1 [Procaine, reference compound] |  |  |  |  | half-life at 3 μM (Human plasma stability): 24 s; half-life at 3 μM (Mouse plasma stability): 42 s
